Tested on: cell mass derived from the cancer tissue (surgical specimens of human colon cancer, Example 2)
Assay: Drug sensitivity test with cell masses embedded in collagen gel
Format: cell-based
Conditions: 5-FU at 0.01, 0.1, 1, 10 and 100 μg/ml; day 8 vs day 0 of culture; FIG. 4
Experimental: Using 5-FU which is known to inhibit DNA synthesis by binding to a thymidylic acid synthetase involved in the metabolism process necessary for DNA synthesis, a drug sensitivity test on a sample of Example 2 was carried out. The test was carried out by embedding the cell masses (×10 each) derived from the cancer tissue in a collagen gel (CellMatrix type IA (Nitta Gelatin Inc.):5×DMEM (Gibco; 12100-038):buffer solution for gel reconstruction (50 mM NaOH, 260 mM NaHCO3, 200 mM HEPES)=7:2:1), and culturing in 1 cc of STEMPRO serum-free medium (Gibco) for human ES cells in an incubator under the culture conditions of 37° C. and 5% CO2. In addition, 5-FU was applied at a concentration of 0.01 μg/ml, 0.1 μg/ml, 1 μg/ml, 10 μg/ml, and 100 μg/ml, and the states of the cells on days 0 and 8 after culture were compared for evaluation. An increasing rate of the area of the cell mass derived from the cancer tissue was expressed relative to 1 of an increasing rate of the area of the cell mass in the culture without application of a drug.

O=c1[nH]cc(F)c(=O)[nH]1 [5-FU]
proliferation of the cancer cell (increasing rate of the area of the cell mass relative to 1 for culture without drug): concentration-dependently suppressed

Source: patent US8841125B2, “Cancer tissue-derived cell mass and a process for preparing same” (Renaissance Energy Investment Co., Ltd., priority 2009, dated 2014)
